Test results published in ChEMBL document CHEMBL1127721, “EPSP synthase inhibitor design IV. New aromatic substrate analogs and symmetrical inhibitors containing novel 3-phosphate mimics” (Bioorg Med Chem Lett, 1994).

Target: T1, 3-phosphoshikimate 1-carboxyvinyltransferase (Escherichia coli K-12, UniProt P0A6D3)
T1 sequence (P0A6D3 whole entry): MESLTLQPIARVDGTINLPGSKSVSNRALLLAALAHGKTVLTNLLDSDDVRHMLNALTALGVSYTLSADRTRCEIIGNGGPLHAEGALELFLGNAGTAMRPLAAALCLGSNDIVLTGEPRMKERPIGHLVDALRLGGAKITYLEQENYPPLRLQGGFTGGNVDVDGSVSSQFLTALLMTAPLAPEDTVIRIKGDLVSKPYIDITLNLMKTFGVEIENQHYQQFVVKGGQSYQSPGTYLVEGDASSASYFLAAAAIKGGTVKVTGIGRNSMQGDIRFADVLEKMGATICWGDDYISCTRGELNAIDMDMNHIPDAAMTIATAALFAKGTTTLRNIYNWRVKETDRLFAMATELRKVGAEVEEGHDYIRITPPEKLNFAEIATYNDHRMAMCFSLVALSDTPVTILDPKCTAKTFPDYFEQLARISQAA
Test: Inhibition of Escherichia coli EPSP synthase

SMILES	IC50 [µM]	Ki [µM]	Ki (read-out: Ki app) [µM]
O=C(O)COc1cc(OC(C(=O)O)C(=O)O)cc(C(=O)O)c1	2000	–	–
O=C(O)c1cc(O)cc(OC(C(=O)O)C(=O)O)c1	10000	–	–
O=C(O)c1cc(CP(=O)(O)O)cc(CP(=O)(O)O)c1	3000	–	–
O=C(O)CO[C@@H]1CC(C(=O)O)=C[C@@H](OP(=O)(O)O)[C@@H]1O	100	1.5	–
O=C(O)c1cc(O)cc(OP(=O)(O)O)c1	7900	–	–
O=C(O)c1cc(O)cc(CP(=O)(O)O)c1	> 80000	–	–
O=C(O)COc1cc(OP(=O)(O)O)cc(C(=O)O)c1	1400	–	–
O=C(O)COc1cc(C(=O)O)cc(P(=O)(O)O)c1	10000	–	–
O=C(O)c1cc(O)cc(C(O)P(=O)(O)O)c1 (stereo not drawn)	10000	–	–
O=C(O)COc1cc(C(=O)O)cc(C(O)P(=O)(O)O)c1 (stereo not drawn)	3000	–	–
O=C(O)c1cc(OC(C(=O)O)C(=O)O)cc(OC(C(=O)O)C(=O)O)c1	210	–	2.5
O=C(O)c1cc(OC(C(=O)O)P(=O)(O)O)cc(OP(=O)(O)O)c1 (stereo not drawn)	20	0.16	–
O=C(O)c1cc(OP(=O)(O)O)cc(OP(=O)(O)O)c1	85	–	0.78
O=C(O)COc1cc(CP(=O)(O)O)cc(C(=O)O)c1	10000	–	–
